# Test results: PubChem BioAssay (NCI)
#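 Cultured in 96-well plates, cells were exposed to test compound for 48 hours across five concentrations. Here, GI50 denotes the concentration required for 50% inhibition of growth. TGI denotes the concentration required for complete inhibition of growth.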 Calls of active or inactive are those of the source. No stated cut-off is given here; in the data, active means GI50 below about 0.43 µM; inactive means the rest.
# Experiments:
# Assay in all cases: inhibition of tumour cell growth, NCI panel, 48 h
# MDA-MB-435 = test system: MDA-MB-435
# COLO 205 colon = test system: COLO 205 colon
# MALME-3M melanoma = test system: MALME-3M melanoma
# RXF 393 renal = test system: RXF 393 renal
# TK-10 renal = test system: TK-10 renal
# PC-3 prostate = test system: PC-3 prostate
# MCF7 breast = test system: MCF7 breast
# BT-549 breast = test system: BT-549 breast
# EKVX NSCLC = test system: EKVX NSCLC
# A549 NSCLC = test system: A549 NSCLC
# K-562 leukemia = test system: K-562 leukemia
# M14 melanoma = test system: M14 melanoma
# DU-145 prostate = test system: DU-145 prostate
# OVCAR-3 ovarian = test system: OVCAR-3 ovarian
# SN12C renal = test system: SN12C renal
# NCI-H460 lung = test system: NCI-H460 lung
# MDA-MB-231 breast = test system: MDA-MB-231 breast
# T-47D breast = test system: T-47D breast
# SF-295 CNS = test system: SF-295 CNS
# UO-31 renal = test system: UO-31 renal
# U251 CNS = test system: U251 CNS
# HCC-2998 colon = test system: HCC-2998 colon
# CAKI-1 renal = test system: CAKI-1 renal
# HT29 colon = test system: HT29 colon
# SK-MEL-5 melanoma = test system: SK-MEL-5 melanoma
# SF-268 CNS = test system: SF-268 CNS
# A498 renal = test system: A498 renal
# SNB-19 CNS = test system: SNB-19 CNS
# OVCAR-8 ovarian = test system: OVCAR-8 ovarian
# SR leukemia = test system: SR leukemia
# LOX IMVI melanoma = test system: LOX IMVI melanoma
# IGROV1 ovarian = test system: IGROV1 ovarian
# OVCAR-5 ovarian = test system: OVCAR-5 ovarian
# SF-539 CNS = test system: SF-539 CNS
# SK-MEL-2 melanoma = test system: SK-MEL-2 melanoma
# HOP-92 NSCLC = test system: HOP-92 NSCLC
# MOLT-4 leukemia = test system: MOLT-4 leukemia
# SK-MEL-28 melanoma = test system: SK-MEL-28 melanoma
# SNB-75 CNS = test system: SNB-75 CNS
# NCI-H23 lung = test system: NCI-H23 lung
# OVCAR-4 ovarian = test system: OVCAR-4 ovarian
# SW-620 colon = test system: SW-620 colon
# NCI/ADR-RES ovarian = test system: NCI/ADR-RES ovarian
# UACC-257 melanoma = test system: UACC-257 melanoma
# SK-OV-3 ovarian = test system: SK-OV-3 ovarian
# HL-60(TB) leukemia = test system: HL-60(TB) leukemia
# HCT-15 colon = test system: HCT-15 colon
# UACC-62 melanoma = test system: UACC-62 melanoma
# HOP-62 NSCLC = test system: HOP-62 NSCLC
# HS 578T breast = test system: HS 578T breast
# CCRF-CEM leukemia = test system: CCRF-CEM leukemia
# HCT-116 colon = test system: HCT-116 colon
# ACHN renal = test system: ACHN renal
# NCI-H226 lung = test system: NCI-H226 lung
# KM12 colon = test system: KM12 colon
structure (smiles),measurement,setting,value
O=c1cc(-c2cc(O)c(O)c(-c3c(O)cc(O)c4c(=O)cc(-c5ccc(O)c(O)c5)oc34)c2)oc2cc(O)cc(O)c12,outcome,MDA-MB-435,inactive
same,outcome,COLO 205 colon,inactive
same,outcome,MALME-3M melanoma,inactive
same,outcome,RXF 393 renal,inactive
same,outcome,TK-10 renal,inactive
same,outcome,PC-3 prostate,inactive
same,outcome,MCF7 breast,inactive
same,outcome,BT-549 breast,inactive
same,outcome,EKVX NSCLC,inactive
same,outcome,A549 NSCLC,inactive
same,outcome,K-562 leukemia,inactive
same,outcome,M14 melanoma,inactive
same,outcome,DU-145 prostate,inactive
same,outcome,OVCAR-3 ovarian,inactive
same,outcome,SN12C renal,inactive
same,outcome,NCI-H460 lung,inactive
same,outcome,MDA-MB-231 breast,inactive
same,outcome,T-47D breast,inactive
same,outcome,SF-295 CNS,inactive
same,outcome,UO-31 renal,inactive
same,outcome,U251 CNS,inactive
same,outcome,HCC-2998 colon,inactive
same,outcome,CAKI-1 renal,inactive
same,outcome,HT29 colon,inactive
same,outcome,SK-MEL-5 melanoma,inactive
same,outcome,SF-268 CNS,inactive
same,outcome,A498 renal,inactive
same,outcome,SNB-19 CNS,inactive
same,outcome,OVCAR-8 ovarian,inactive
same,outcome,SR leukemia,inactive
same,outcome,LOX IMVI melanoma,inactive
same,outcome,IGROV1 ovarian,inactive
same,outcome,OVCAR-5 ovarian,inactive
same,outcome,SF-539 CNS,inactive
same,outcome,SK-MEL-2 melanoma,inactive
same,outcome,HOP-92 NSCLC,inactive
same,outcome,MOLT-4 leukemia,inactive
same,outcome,SK-MEL-28 melanoma,inactive
same,outcome,SNB-75 CNS,inactive
same,outcome,NCI-H23 lung,inactive
same,outcome,OVCAR-4 ovarian,inactive
same,outcome,SW-620 colon,inactive
same,outcome,NCI/ADR-RES ovarian,inactive
same,outcome,UACC-257 melanoma,inactive
same,outcome,SK-OV-3 ovarian,inactive
same,outcome,HL-60(TB) leukemia,inactive
same,outcome,HCT-15 colon,inactive
same,outcome,UACC-62 melanoma,inactive
same,outcome,HOP-62 NSCLC,inactive
same,outcome,HS 578T breast,inactive
same,outcome,CCRF-CEM leukemia,inactive
same,outcome,HCT-116 colon,inactive
COc1cc(-c2ccc(-c3ccc(C(=N)N)cc3)s2)cc(OC)c1OC,GI50,MDA-MB-435,1.57 µM
same,TGI,MDA-MB-435,3.01 µM
same,GI50,MALME-3M melanoma,1.46 µM
same,TGI,MALME-3M melanoma,2.9 µM
same,GI50,RXF 393 renal,2.1 µM
same,TGI,RXF 393 renal,4.08 µM
same,GI50,TK-10 renal,2.05 µM
same,TGI,TK-10 renal,4.02 µM
same,GI50,PC-3 prostate,2.94 µM
same,TGI,PC-3 prostate,11.2 µM
same,GI50,MCF7 breast,1.65 µM
same,TGI,MCF7 breast,4.36 µM
same,GI50,BT-549 breast,2.69 µM
same,TGI,BT-549 breast,9.4 µM
same,GI50,EKVX NSCLC,4.69 µM
same,TGI,EKVX NSCLC,19.7 µM
same,GI50,A549 NSCLC,3.63 µM
same,TGI,A549 NSCLC,14.7 µM
same,GI50,K-562 leukemia,2.63 µM
same,TGI,K-562 leukemia,10.2 µM
same,GI50,M14 melanoma,1.62 µM
same,TGI,M14 melanoma,3.36 µM
same,GI50,DU-145 prostate,2.41 µM
same,TGI,DU-145 prostate,6.09 µM
same,GI50,OVCAR-3 ovarian,2.01 µM
same,TGI,OVCAR-3 ovarian,3.87 µM
same,GI50,SN12C renal,4.5 µM
same,TGI,SN12C renal,18.8 µM
same,GI50,NCI-H460 lung,1.83 µM
same,TGI,NCI-H460 lung,3.47 µM
same,GI50,MDA-MB-231 breast,1.62 µM
same,TGI,MDA-MB-231 breast,3.26 µM
same,GI50,T-47D breast,1.9 µM
same,TGI,T-47D breast,4.92 µM
same,GI50,SF-295 CNS,1.77 µM
same,TGI,SF-295 CNS,3.45 µM
same,GI50,UO-31 renal,3.37 µM
same,TGI,UO-31 renal,14.8 µM
same,GI50,HCC-2998 colon,1.79 µM
same,TGI,HCC-2998 colon,3.24 µM
same,GI50,CAKI-1 renal,1.72 µM
same,TGI,CAKI-1 renal,3.22 µM
same,GI50,HT29 colon,1.5 µM
same,TGI,HT29 colon,5.56 µM
same,GI50,SK-MEL-5 melanoma,1.72 µM
same,TGI,SK-MEL-5 melanoma,3.1 µM
same,GI50,SF-268 CNS,2.41 µM
same,TGI,SF-268 CNS,7.36 µM
same,GI50,A498 renal,0.215 µM
same,TGI,A498 renal,3.96 µM
same,GI50,SNB-19 CNS,2.36 µM
same,TGI,SNB-19 CNS,6.56 µM
same,GI50,OVCAR-8 ovarian,2.34 µM
same,TGI,OVCAR-8 ovarian,5.87 µM
same,GI50,SR leukemia,2.08 µM
same,TGI,SR leukemia,5.43 µM
same,GI50,LOX IMVI melanoma,1.72 µM
same,TGI,LOX IMVI melanoma,3.1 µM
same,GI50,ACHN renal,1.73 µM
same,TGI,ACHN renal,3.19 µM
same,GI50,IGROV1 ovarian,5 µM
same,TGI,IGROV1 ovarian,18.5 µM
same,GI50,OVCAR-5 ovarian,3.46 µM
same,TGI,OVCAR-5 ovarian,13.8 µM
same,GI50,SF-539 CNS,1.62 µM
same,TGI,SF-539 CNS,3.03 µM
same,GI50,NCI-H226 lung,2.16 µM
same,TGI,NCI-H226 lung,6.58 µM
same,GI50,KM12 colon,1.67 µM
same,TGI,KM12 colon,3.35 µM
same,GI50,SK-MEL-2 melanoma,1.91 µM
same,TGI,SK-MEL-2 melanoma,3.73 µM
same,GI50,HOP-92 NSCLC,1.29 µM
same,TGI,HOP-92 NSCLC,3.72 µM
same,GI50,MOLT-4 leukemia,2.2 µM
same,TGI,MOLT-4 leukemia,6.15 µM
same,GI50,SK-MEL-28 melanoma,1.6 µM
same,TGI,SK-MEL-28 melanoma,3.05 µM
same,GI50,SNB-75 CNS,1.6 µM
same,TGI,SNB-75 CNS,6.19 µM
same,GI50,NCI-H23 lung,2.25 µM
same,TGI,NCI-H23 lung,5.4 µM
same,GI50,OVCAR-4 ovarian,1.76 µM
same,TGI,OVCAR-4 ovarian,4.03 µM
same,GI50,SW-620 colon,1.73 µM
same,TGI,SW-620 colon,3.31 µM
same,GI50,NCI/ADR-RES ovarian,7.88 µM
same,TGI,NCI/ADR-RES ovarian,23.6 µM
same,GI50,UACC-257 melanoma,2.02 µM
same,TGI,UACC-257 melanoma,4.37 µM
same,GI50,SK-OV-3 ovarian,2.45 µM
same,TGI,SK-OV-3 ovarian,6.65 µM
same,GI50,HL-60(TB) leukemia,2.13 µM
same,TGI,HL-60(TB) leukemia,4.75 µM
same,GI50,HCT-15 colon,2.25 µM
same,TGI,HCT-15 colon,5.29 µM
same,GI50,UACC-62 melanoma,2.77 µM
same,TGI,UACC-62 melanoma,10.3 µM
same,GI50,HS 578T breast,1.75 µM
same,TGI,HS 578T breast,4.16 µM
same,GI50,CCRF-CEM leukemia,2.93 µM
same,TGI,CCRF-CEM leukemia,11.7 µM
same,GI50,HCT-116 colon,1.56 µM
same,TGI,HCT-116 colon,3.19 µM
